Results from patent US20120029187A1, “HALOALKYLSULFONANILIDE DERIVATIVE” (Nissan Chemical Industries, Ltd., priority 2009, published 2012).

Assays:
Assay type in all cases: in vivo
barnyardgrass [1] = assay: Test Example 2: herbicidal effects during the vegetation period under submerged conditions; conditions: treatment during the vegetation period under submerged conditions; dose 2.52 g/a
Method in brief: (§1)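 Barnyardgrass, bulrush and ducksalad were co-sown in alluvial soil flooded to 4 cm and grown in a greenhouse at 25 to 30° C. At the 1- or 2-leaf stage, water-diluted emulsifiable concentrates went onto the water surface at set doses (g/a). Herbicidal effect was scored three weeks later on a graded scale.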

ducksalad [2] = assay: as above; conditions: treatment during the vegetation period under submerged conditions; dose 2.52 g/a
Method in brief: as §1

bulrush [3] = assay: as above; conditions: treatment during the vegetation period under submerged conditions; dose 2.52 g/a
Method in brief: as §1

barnyardgrass [4] = assay: Test Example 1: herbicidal effects in preemergence treatment under submerged conditions; conditions: dose 2.52 g/a
Method in brief: (§2)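 Scoring 0 (<5% mortality) to 5 (≥90%) was done three weeks after preemergence application to the water surface of submerged (4 cm) alluvial soil, doses given as g per are. Weeds were seeded and 2.5-leaf rice transplanted on the treatment day; greenhouse at 25–30 °C.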

ducksalad [5] = assay: as above; conditions: dose 2.52 g/a
Method in brief: as §2

bulrush [6] = assay: as above; conditions: dose 2.52 g/a
Method in brief: as §2

transplanted rice = assay: Test Example 1: preemergence treatment under submerged conditions, effect on crop; conditions: dose 2.52 g/a
Method in brief: as §2

Italian ryegrass [7] = assay: Test Example 3: herbicidal effects in soil treatment; conditions: dose 3.2 g/a
Method in brief: (§3)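 Seeds were sown in sterilized diluvial soil and covered with about 1.5 cm of soil. Compounds, formulated as emulsifiable concentrates and diluted with water, were sprayed evenly over the soil surface at set doses in g/a. Herbicidal effect was scored on a rating scale three weeks later.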

posumbu knotweed [8] = assay: as above; conditions: dose 3.2 g/a
Method in brief: as §3

common lambsquater [9] = assay: as above; conditions: dose 3.2 g/a
Method in brief: as §3

redroot pigweed [10] = assay: as above; conditions: dose 3.2 g/a
Method in brief: as §3

water foxtail [11] = assay: as above; conditions: dose 3.2 g/a
Method in brief: as §3

common chickweed [12] = assay: as above; conditions: dose 3.2 g/a
Method in brief: as §3

common ragweed [13] = assay: as above; conditions: dose 3.2 g/a
Method in brief: as §3

velvetleaf [14] = assay: as above; conditions: dose 3.2 g/a
Method in brief: as §3

barnyardgrass [15] = assay: as above; conditions: dose 3.2 g/a
Method in brief: as §3

giant foxtail [16] = assay: as above; conditions: dose 3.2 g/a
Method in brief: as §3

large crabgrass [17] = assay: as above; conditions: dose 3.2 g/a
Method in brief: as §3

Italian ryegrass [18] = assay: Test Example 4: herbicidal effect in foliage treatment; conditions: dose 3.2 g/a, three weeks after application
Method in brief: (§4)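 Post-emergence foliar spray of water-diluted emulsifiable concentrate at predetermined doses (g per are), applied to plants 14 days after sowing in sterile diluvial soil (greenhouse, 25 to 30° C). Visual scale rating of effect taken 3 weeks later.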

posumbu knotweed [19] = assay: as above; conditions: dose 3.2 g/a, three weeks after application
Method in brief: as §4

common lambsquater [20] = assay: as above; conditions: dose 3.2 g/a, three weeks after application
Method in brief: as §4

redroot pigweed [21] = assay: as above; conditions: dose 3.2 g/a, three weeks after application
Method in brief: as §4

water foxtail [22] = assay: as above; conditions: dose 3.2 g/a, three weeks after application
Method in brief: as §4

common chickweed [23] = assay: as above; conditions: dose 3.2 g/a, three weeks after application
Method in brief: as §4

common ragweed [24] = assay: as above; conditions: dose 3.2 g/a, three weeks after application
Method in brief: as §4

velvetleaf [25] = assay: as above; conditions: dose 3.2 g/a, three weeks after application
Method in brief: as §4

barnyardgrass [26] = assay: as above; conditions: dose 3.2 g/a, three weeks after application
Method in brief: as §4

giant foxtail [27] = assay: as above; conditions: dose 3.2 g/a, three weeks after application
Method in brief: as §4

large crabgrass [28] = assay: as above; conditions: dose 3.2 g/a, three weeks after application
Method in brief: as §4

beadstraw = assay: as above; conditions: dose 3.2 g/a, three weeks after application
Method in brief: as §4

| SMILES | A: barnyardgrass, herbicidal effect (evaluation scale 0-5) (barnyardgrass [1]) | C: ducksalad, herbicidal effect (evaluation scale 0-5) (ducksalad [2]) | B: bulrush, herbicidal effect (evaluation scale 0-5) (bulrush [3]) | A: barnyardgrass, herbicidal effect (evaluation scale 0-5) (barnyardgrass [4]) | C: ducksalad, herbicidal effect (evaluation scale 0-5) (ducksalad [5]) | B: bulrush, herbicidal effect (evaluation scale 0-5) (bulrush [6]) | a: transplanted rice, effect on crop (evaluation scale 0-5) (transplanted rice) | H: Italian ryegrass, herbicidal effect (evaluation scale 0-5) (Italian ryegrass [7]) | M: posumbu knotweed, herbicidal effect (evaluation scale 0-5) (posumbu knotweed [8]) | L: common lambsquater, herbicidal effect (evaluation scale 0-5) (common lambsquater [9]) | K: redroot pigweed, herbicidal effect (evaluation scale 0-5) (redroot pigweed [10]) | G: water foxtail, herbicidal effect (evaluation scale 0-5) (water foxtail [11]) | N: common chickweed, herbicidal effect (evaluation scale 0-5) (common chickweed [12]) | J: common ragweed, herbicidal effect (evaluation scale 0-5) (common ragweed [13]) | I: velvetleaf, herbicidal effect (evaluation scale 0-5) (velvetleaf [14]) | A: barnyardgrass, herbicidal effect (evaluation scale 0-5) (barnyardgrass [15]) | E: giant foxtail, herbicidal effect (evaluation scale 0-5) (giant foxtail [16]) | D: large crabgrass, herbicidal effect (evaluation scale 0-5) (large crabgrass [17]) | H: Italian ryegrass, herbicidal effect (Italian ryegrass [18]) | M: posumbu knotweed, herbicidal effect (posumbu knotweed [19]) | further results |
| --- | --- | --- | --- | --- | --- | --- | --- | --- | --- | --- | --- | --- | --- | --- | --- | --- | --- | --- | --- | --- | --- |
| CCOC(=O)N(c1ccccc1CN1COC(C)(CC)CC1=O)S(=O)(=O)C(F)(F)F (stereo not drawn) [II-42] | 5 (mortality of 90% or above (nearly complete death)) | 5 (mortality of 90% or above (nearly complete death)) | 5 (mortality of 90% or above (nearly complete death)) | 5 (mortality of 90% or above (nearly complete death)) | 5 (mortality of 90% or above (nearly complete death)) | 5 (mortality of 90% or above (nearly complete death)) | 0 (mortality of less than 5% (almost ineffective)) | 5 (mortality of 90% or above (nearly complete death)) | 4 (mortality of at least 70% and less than 90%) | 0 (mortality of less than 5% (almost ineffective)) | 3 (mortality of at least 40% and less than 70%) | 5 (mortality of 90% or above (nearly complete death)) | 5 (mortality of 90% or above (nearly complete death)) | 4 (mortality of at least 70% and less than 90%) | 5 (mortality of 90% or above (nearly complete death)) | 5 (mortality of 90% or above (nearly complete death)) | 1 (mortality of at least 5% and less than 20%) | 5 (mortality of 90% or above (nearly complete death)) | 3 (mortality of at least 40% and less than 70%) | 0 (mortality of less than 5% (almost ineffective)) | L: common lambsquater, herbicidal effect (common lambsquater [20]): 3 (mortality of at least 40% and less than 70%); K: redroot pigweed, herbicidal effect (redroot pigweed [21]): 0 (mortality of less than 5% (almost ineffective)); G: water foxtail, herbicidal effect (water foxtail [22]): 5 (mortality of 90% or above (nearly complete death)); N: common chickweed, herbicidal effect (common chickweed [23]): 4 (mortality of at least 70% and less than 90%); J: common ragweed, herbicidal effect (common ragweed [24]): 3 (mortality of at least 40% and less than 70%); I: velvetleaf, herbicidal effect (velvetleaf [25]): 5 (mortality of 90% or above (nearly complete death)); A: barnyardgrass, herbicidal effect (barnyardgrass [26]): 5 (mortality of 90% or above (nearly complete death)); E: giant foxtail, herbicidal effect (giant foxtail [27]): 5 (mortality of 90% or above (nearly complete death)); D: large crabgrass, herbicidal effect (large crabgrass [28]): 3 (mortality of at least 40% and less than 70%); O: beadstraw, herbicidal effect (beadstraw): 3 (mortality of at least 40% and less than 70%) |
| CCOC(=O)N(c1ccccc1CN1COC(C)(C)C(Br)C1=O)S(=O)(=O)C(F)(F)F (stereo not drawn) [II-39, 5-bromo-6,6-dimethyl-3-[2-(N-ethoxylcarbonyl-N-trifluoromethanesulfonyl)aminobenzyl]-1,3-oxazinan-4-one] | 5 (mortality of 90% or above (nearly complete death)) | 5 (mortality of 90% or above (nearly complete death)) | 5 (mortality of 90% or above (nearly complete death)) | 5 (mortality of 90% or above (nearly complete death)) | 5 (mortality of 90% or above (nearly complete death)) | 5 (mortality of 90% or above (nearly complete death)) | 0 (mortality of less than 5% (almost ineffective)) | 5 (mortality of 90% or above (nearly complete death)) | 5 (mortality of 90% or above (nearly complete death)) | 5 (mortality of 90% or above (nearly complete death)) | 1 (mortality of at least 5% and less than 20%) | 5 (mortality of 90% or above (nearly complete death)) | 5 (mortality of 90% or above (nearly complete death)) | 4 (mortality of at least 70% and less than 90%) | 5 (mortality of 90% or above (nearly complete death)) | 5 (mortality of 90% or above (nearly complete death)) | 5 (mortality of 90% or above (nearly complete death)) | 5 (mortality of 90% or above (nearly complete death)) | 3 (mortality of at least 40% and less than 70%) | 3 (mortality of at least 40% and less than 70%) | L: common lambsquater, herbicidal effect (common lambsquater [20]): 3 (mortality of at least 40% and less than 70%); K: redroot pigweed, herbicidal effect (redroot pigweed [21]): 4 (mortality of at least 70% and less than 90%); G: water foxtail, herbicidal effect (water foxtail [22]): 5 (mortality of 90% or above (nearly complete death)); N: common chickweed, herbicidal effect (common chickweed [23]): 4 (mortality of at least 70% and less than 90%); J: common ragweed, herbicidal effect (common ragweed [24]): 5 (mortality of 90% or above (nearly complete death)); I: velvetleaf, herbicidal effect (velvetleaf [25]): 5 (mortality of 90% or above (nearly complete death)); A: barnyardgrass, herbicidal effect (barnyardgrass [26]): 5 (mortality of 90% or above (nearly complete death)); E: giant foxtail, herbicidal effect (giant foxtail [27]): 5 (mortality of 90% or above (nearly complete death)); D: large crabgrass, herbicidal effect (large crabgrass [28]): 4 (mortality of at least 70% and less than 90%); O: beadstraw, herbicidal effect (beadstraw): 4 (mortality of at least 70% and less than 90%) |
